Patent US9199962B2, “Substituted azaheterocycles for the treatment of cancer” (Merck Patent GmbH, priority 2011, dated 2015)
Read-outs that look alike come from different tables or passages of the source.

Columns and labels:
[1] = biological target: T1, focal adhesion kinase (FAK) autophosphorylation at tyrosine 397 in HT29 cells (Homo sapiens, UniProt Q05397); test: Cellular testing of FAK inhibitors: FAK autophosphorylation at tyrosine 397 in HT29 cells (Luminex-based assay); assay type: cell-based; conditions: 30 min serum-free, read-out: HT-29 IC50
T1 construct: endogenous in cells; host or cells: HT29
T1 sequence (Q05397 whole entry): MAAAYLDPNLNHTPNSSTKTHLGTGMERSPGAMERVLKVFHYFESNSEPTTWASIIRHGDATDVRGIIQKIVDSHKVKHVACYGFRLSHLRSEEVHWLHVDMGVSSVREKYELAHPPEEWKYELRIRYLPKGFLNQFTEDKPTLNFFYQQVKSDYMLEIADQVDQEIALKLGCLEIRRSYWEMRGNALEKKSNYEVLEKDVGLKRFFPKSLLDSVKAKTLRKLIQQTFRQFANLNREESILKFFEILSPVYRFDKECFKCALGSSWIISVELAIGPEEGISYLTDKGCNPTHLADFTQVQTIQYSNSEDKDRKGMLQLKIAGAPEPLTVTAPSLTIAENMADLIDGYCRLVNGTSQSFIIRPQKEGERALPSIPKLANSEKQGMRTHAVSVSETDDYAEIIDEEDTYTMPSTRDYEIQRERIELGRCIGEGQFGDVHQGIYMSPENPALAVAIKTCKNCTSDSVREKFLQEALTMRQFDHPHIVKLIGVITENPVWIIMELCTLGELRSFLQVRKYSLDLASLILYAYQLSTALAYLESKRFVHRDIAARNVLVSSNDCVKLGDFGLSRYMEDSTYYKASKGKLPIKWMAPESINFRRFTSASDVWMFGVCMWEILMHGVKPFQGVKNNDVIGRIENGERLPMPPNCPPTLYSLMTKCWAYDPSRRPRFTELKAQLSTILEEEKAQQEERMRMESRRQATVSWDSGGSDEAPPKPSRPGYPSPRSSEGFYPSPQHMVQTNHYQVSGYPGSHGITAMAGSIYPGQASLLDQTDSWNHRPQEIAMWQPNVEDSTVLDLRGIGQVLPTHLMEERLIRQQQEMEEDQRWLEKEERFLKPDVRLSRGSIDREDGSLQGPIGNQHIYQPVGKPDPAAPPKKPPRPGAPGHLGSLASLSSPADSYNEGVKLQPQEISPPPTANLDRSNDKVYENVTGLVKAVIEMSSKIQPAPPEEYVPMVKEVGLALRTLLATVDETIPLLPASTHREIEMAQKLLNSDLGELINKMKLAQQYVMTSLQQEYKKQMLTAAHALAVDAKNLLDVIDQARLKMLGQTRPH
Protocol: 2. Assay Principle for Celluar Testing of FAK Inhibitors
Cellular activity of focal adhesion kinase (FAK) is determined by the degree of FAK autophosphorylation at tyrosine 397 using a Luminex-based assay. HT29 cells are plated with 30,000 cells per well of a 96-well plate in 100 μl medium (90% DMEM/10% FCS). At the following day, test compounds are added in a serial dilution under serum-free conditions for 30 min. Then, cells were lysed with 90 μl lysis buffer (20 mM Tris/HCl pH 8.0, 150 mM NaCl, 1% NP40, 10% Glycerol, 1% Phosphatase-Inhibitor II, 20 mM […]-Glycerolphosphat, 0.1% Protease-Inhibitor Cocktail III, 0.01% Benzonase) and lysates were cleared by centrifugation through a 96-well filter plate (0.65 μm). Samples were incubated with Luminex-beads which were coupled with an anti-total FAK antibody overnight at 4° C. with under gentle agitation. For detection of phospho-Y397-FAK a phosphospecific antibody and a species specific PE-labeled secondary antibody are added. The amount of phospho-Y397-FAK is determined in a Luminex100 machine measuring 100 events per well within 60 seconds.
Counts from samples treated with a FAK reference inhibitor are subtracted as pharmacological blank. Counts from samples treated with test compounds are calculated as percent of control from solvent treated (0.3% DMSO) samples. IC50 values were determined using AssayExplorer software.

[2] = biological target: T2, GST-FAK (N-terminal GST fusion with truncated human FAK (376-1052 (end) amino acids)) (Homo sapiens, UniProt Q05397); test: Biochemical enzyme assay for FAK activity (Caliper LC3000 mobility shift); conditions: 100 uM ATP, read-out: FAK IC50
T2 construct: truncated human FAK (376-1052 (end) amino acids)
T2 sequence (Q05397 376-1052): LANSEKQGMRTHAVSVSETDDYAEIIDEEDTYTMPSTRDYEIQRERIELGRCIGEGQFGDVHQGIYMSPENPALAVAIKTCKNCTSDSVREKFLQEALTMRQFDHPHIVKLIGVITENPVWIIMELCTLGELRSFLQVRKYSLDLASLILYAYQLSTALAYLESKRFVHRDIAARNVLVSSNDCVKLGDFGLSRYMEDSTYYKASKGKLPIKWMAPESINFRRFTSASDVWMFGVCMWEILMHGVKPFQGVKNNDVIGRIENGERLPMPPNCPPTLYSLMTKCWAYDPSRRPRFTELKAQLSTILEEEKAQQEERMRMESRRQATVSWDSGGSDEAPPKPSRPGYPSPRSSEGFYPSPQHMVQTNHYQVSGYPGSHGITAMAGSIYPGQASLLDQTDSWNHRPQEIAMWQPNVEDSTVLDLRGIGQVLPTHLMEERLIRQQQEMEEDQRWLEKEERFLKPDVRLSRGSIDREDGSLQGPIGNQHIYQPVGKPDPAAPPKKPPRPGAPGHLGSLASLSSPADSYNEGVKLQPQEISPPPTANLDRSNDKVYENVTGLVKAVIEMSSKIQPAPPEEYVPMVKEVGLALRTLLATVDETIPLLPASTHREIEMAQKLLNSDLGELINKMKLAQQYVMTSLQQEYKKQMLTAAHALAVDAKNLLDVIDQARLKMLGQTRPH
Procedure, shortened: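 Inhibitor dose series in DMSO were incubated 90 min at 25 °C with truncated GST-tagged human FAK (0.067 ng/µl) and FITC-labelled peptide substrate (1 µM), with ATP at 100 µM and FERM peptide at 1 mM (pH 7.5 HEPES). After EDTA quench, phosphorylated and unphosphorylated peptides were resolved electrophoretically. Percent conversion was fitted for IC50.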

| Compound | IC50 ([1]; Table 2, phospho-Y397-FAK) | IC50 ([2]; Table 2) | IC50 ([1]; Table 3, phospho-Y397-FAK) | IC50 ([2]; Table 3) |
| --- | --- | --- | --- | --- |
| O=C(NCCCN1CCCC1=O)c1cc(NCc2ccc(F)cc2F)nc(-c2cncc(C(F)(F)F)c2)n1 [Compound 47, 6-(2,4-Difluoro-benzylamino)-2-(5-trifluoromethyl-pyridin-3-yl)-pyrimidine-4-carboxylic acid [3-(2-oxo-pyrrolidin-1-yl)-propyl]-amide] | 0.1 to 1 µM | < 0.1 µM | – | – |
| O=C(NCCCN1CCOCC1)c1cc(NCc2ccc(F)cc2F)nc(-c2cncc(C(F)(F)F)c2)n1 [Compound 48, 6-(2,4-Difluoro-benzylamino)-2-(5-trifluoromethyl-pyridin-3-yl)-pyrimidine-4-carboxylic acid (3-morpholin-4-yl-propyl)-amide] | > 10 µM | < 0.1 µM | – | – |
| NC(=O)C1CCN(C(=O)c2cc(NCc3ccc(F)cc3F)nc(-c3cncc(C(F)(F)F)c3)n2)CC1 [Compound 49, 1-[6-(2,4-Difluoro-benzylamino)-2-(5-trifluoromethyl-pyridin-3-yl)-pyrimidine-4-carbonyl]-piperidine-4-carboxylic acid amide] | 1 to 10 µM | < 0.1 µM | – | – |
| NC(=O)C1CCCN(C(=O)c2cc(NCc3ccc(F)cc3F)nc(-c3cncc(C(F)(F)F)c3)n2)C1 (stereo not drawn) [Compound 50, 1-[6-(2,4-Difluoro-benzylamino)-2-(5-trifluoromethyl-pyridin-3-yl)-pyrimidine-4-carbonyl]-piperidine-3-carboxylic acid amide] | 1 to 10 µM | < 0.1 µM | – | – |
| CN1CCC(CNC(=O)c2cc(NCc3ccc(F)cc3F)nc(-c3cncc(C(F)(F)F)c3)n2)C1 (stereo not drawn) [Compound 51, 6-(2,4-Difluoro-benzylamino)-2-(5-trifluoromethyl-pyridin-3-yl)-pyrimidine-4-carboxylic acid (1-methyl-pyrrolidin-3-ylmethyl)-amide] | 1 to 10 µM | < 0.1 µM | – | – |
| O=C(NCCc1c[nH]cn1)c1cc(NCc2ccc(F)cc2F)nc(-c2cncc(C(F)(F)F)c2)n1 [Compound 52, 6-(2,4-Difluoro-benzylamino)-2-(5-trifluoromethyl-pyridin-3-yl)-pyrimidine-4-carboxylic acid [2-(1H-imidazol-4-yl)-ethyl]-amide] | 1 to 10 µM | < 0.1 µM | – | – |
| CN(C)CCCCNC(=O)c1cc(NCc2ccc(F)cc2F)nc(-c2cncc(C(F)(F)F)c2)n1 [Compound 53, 6-(2,4-Difluoro-benzylamino)-2-(5-trifluoromethyl-pyridin-3-yl)-pyrimidine-4-carboxylic acid (4-dimethylamino-butyl)-amide] | 1 to 10 µM | < 0.1 µM | – | – |
| CN1CCC(NC(=O)c2cc(NCc3ccc(F)cc3F)nc(-c3cncc(C(F)(F)F)c3)n2)CC1 [Compound 54, 6-(2,4-Difluoro-benzylamino)-2-(5-trifluoromethyl-pyridin-3-yl)-pyrimidine-4-carboxylic acid (1-methyl-piperidin-4-yl)-amide] | 1 to 10 µM | < 0.1 µM | – | – |
| NC(=O)C1CCCN(c2cc(NCc3ccc(F)cc3F)nc(-c3cncc(C(F)(F)F)c3)n2)C1 (stereo not drawn) [Compound 55, 1-[6-(2,4-Difluoro-benzylamino)-2-(5-trifluoromethyl-pyridin-3-yl)-pyrimidin-4-yl]-piperidine-3-carboxylic acid amide] | 1 to 10 µM | 0.1 to 1 µM | – | – |
| Fc1ccc(CNc2cc(NCCCn3ccnc3)nc(-c3cncc(C(F)(F)F)c3)n2)c(F)c1 [Compound 56, N-(2,4-Difluoro-benzyl)-N′-(3-imidazol-1-yl-propyl)-2-(5-trifluoromethyl-pyridin-3-yl)-pyrimidine-4,6-diamine] | 1 to 10 µM | 0.1 to 1 µM | – | – |
| O=C1CCCN1CCCNc1cc(NCc2ccc(F)cc2F)nc(-c2cncc(C(F)(F)F)c2)n1 [Compound 57, 1-{3-[6-(2,4-Difluoro-benzylamino)-2-(5-trifluoromethyl-pyridin-3-yl)-pyrimidin-4-ylamino]-propyl}-pyrrolidin-2-one] | 1 to 10 µM | 0.1 to 1 µM | – | – |
| Fc1ccc(CNc2cc(NCCCN3CCOCC3)nc(-c3cncc(C(F)(F)F)c3)n2)c(F)c1 [Compound 58, N-(2,4-Difluoro-benzyl)-N′-(3-morpholin-4-yl-propyl)-2-(5-trifluoromethyl-pyridin-3-yl)-pyrimidine-4,6-diamine] | 1 to 10 µM | < 0.1 µM | – | – |
| NC(=O)C1CCN(c2cc(NCc3ccc(F)cc3F)nc(-c3cncc(C(F)(F)F)c3)n2)CC1 [Compound 59, 1-[6-(2,4-Difluoro-benzylamino)-2-(5-trifluoromethyl-pyridin-3-yl)-pyrimidin-4-yl]-piperidine-4-carboxylic acid amide] | 1 to 10 µM | 0.1 to 1 µM | – | – |
| CN(C)CCCNc1cc(NCc2ccc(F)cc2F)nc(-c2cncc(C(F)(F)F)c2)n1 [Compound 60, N-(2,4-Difluoro-benzyl)-N′-(3-dimethylamino-propyl)-2-(5-trifluoromethyl-pyridin-3-yl)-pyrimidine-4,6-diamine] | 1 to 10 µM | < 0.1 µM | – | – |
| CCN(CC)C(=O)CCNc1cc(NCc2ccc(F)cc2F)nc(-c2cncc(C(F)(F)F)c2)n1 [Compound 62, 3-[6-(2,4-Difluoro-benzylamino)-2-(5-trifluoromethyl-pyridin-3-yl)-pyrimidin-4-ylamino]-N,N-diethyl-propionamide] | 1 to 10 µM | 0.1 to 1 µM | – | – |
| O=C(CCNc1cc(NCc2ccc(F)cc2F)nc(-c2cncc(C(F)(F)F)c2)n1)N1CCOCC1 [Compound 63, 3-[6-(2,4-Difluoro-benzylamino)-2-(5-trifluoromethyl-pyridin-3-yl)-pyrimidin-4-ylamino]-1-morpholin-4-yl-propan-1-one] | 1 to 10 µM | 0.1 to 1 µM | – | – |
| CN1CCN(C(=O)CCNc2cc(NCc3ccc(F)cc3F)nc(-c3cncc(C(F)(F)F)c3)n2)CC1 [Compound 64, 3-[6-(2,4-Difluoro-benzylamino)-2-(5-trifluoromethyl-pyridin-3-yl)-pyrimidin-4-ylamino]-1-(4-methyl-piperazin-1-yl)-propan-1-one] | 1 to 10 µM | 0.1 to 1 µM | – | – |
| CN(C)CCCCNc1cc(NCc2ccc(F)cc2F)nc(-c2cncc(C(F)(F)F)c2)n1 [Compound 65, N-(2,4-Difluoro-benzyl)-N′-(4-dimethylamino-butyl)-2-(5-trifluoromethyl-pyridin-3-yl)-pyrimidine-4,6-diamine] | > 10 µM | 0.1 to 1 µM | – | – |
| NC(=O)CNC(=O)c1cc(NCc2ccc(F)cc2F)nc(-c2cncc(C(F)(F)F)c2)n1 [Compound 72, 6-(2,4-Difluoro-benzylamino)-2-(5-trifluoromethyl-pyridin-3-yl)-pyrimidine-4-carboxylic acid carbamoylmethyl-amide] | 0.1 to 1 µM | < 0.1 µM | – | – |
| Nc1ncccc1-c1nccc(NCc2ccccc2C(F)(F)F)n1 [Compound 77, 2-(2-Aminopyridin-3-yl)-N-[2-(trifluoromethyl)benzyl]pyrimidin-4-amine] | – | – | > 10 µM | 0.1 to 1 µM |
| FC(F)(F)c1ccccc1CNc1ccnc(-c2cccnc2)n1 [Compound 89, 2-Pyridin-3-yl-N-[2-(trifluoromethyl)benzyl]pyrimidin-4-amine] | – | – | > 10 µM | 0.1 to 1 µM |
| Nc1ncccc1-c1nccc(NCc2ccc(F)cc2F)n1 [Compound 98, 2-(2-Aminopyridin-3-yl)-N-(2,4-difluorobenzyl)pyrimidin-4-amine] | – | – | > 10 µM | 0.1 to 1 µM |
| Fc1cncc(-c2nccc(NCc3ccccc3C(F)(F)F)n2)c1 [Compound 107, 2-(5-Fluoropyridin-3-yl)-N-[2-(trifluoromethyl)benzyl]pyrimidin-4-amine] | – | – | > 10 µM | 0.1 to 1 µM |
| FC(F)(F)c1ccccc1CNc1ccnc(-c2cncc(Cl)c2)n1 [Compound 108, 2-(5-Chloropyridin-3-yl)-N-[2-(trifluoromethyl)benzyl]pyrimidin-4-amine] | – | – | 1 to 10 µM | < 0.1 µM |
| Nc1ncccc1-c1nccc(NCc2ccc(F)cc2C(F)(F)F)n1 [Compound 110, 2-(2-Aminopyridin-3-yl)-N-[4-fluoro-2-(trifluoromethyl)benzyl]pyrimidin-4-amine] | – | – | 1 to 10 µM | < 0.1 µM |
| FC(F)(F)c1cncc(-c2nccc(NCc3ccccc3C(F)(F)F)n2)c1 [Compound 112, N-[2-(Trifluoromethyl)benzyl]-2-[5-(trifluoromethyl)pyridin-3-yl]pyrimidin-4-amine] | – | – | 1 to 10 µM | < 0.1 µM |
| Fc1ccc(CNc2ccnc(-c3cncc(Cl)c3)n2)c(F)c1 [Compound 114, 2-(5-Chloropyridin-3-yl)-N-(2,4-difluorobenzyl)pyrimidin-4-amine] | – | – | 0.1 to 1 µM | < 0.1 µM |
